pEC50: −log10 of the molar value.
Columns and labels:
[1] = Ho et al., 2001; cited from earlier work
[2] = system: 3T3 fibroblasts; assay: Cytotoxicity of 5-FU in 3T3 fibroblasts with or without PTD-4-TSD254E fusion protein (Hoechst 33342); assay type: cell-based; conditions: 24 h
Method: 3T3 fibroblasts cells (available by the American Type […] Collection (ATCC, Rockville, Md., USA) were seeded with a cell density of 1×10^4 cells per well into 96-well-cell culture plates. DMEM medium with 10% fetal calve serum is used as cell culture medium, and cells are cultured in a CO2-incubator at 37° C. and 5% CO2. The cell culture medium is aspirated after 24 hours and substituted by 200 μL/well of the test assay and cells are incubated for another 24 hours. Subsequently the portion of viable cells was determined as described below. The test assays are composed as follows:
Controls without 5-FU and without PTD-4-TSD2S4E-fusion protein: 200 μL/well of DMEM with 10%.fetal calve serum […]
After completion of the 24-hour treatment of the cells in the control- or test assaysas described above, the medium is removed from the 96-well-plates and substituted by 200 μL/well DMEM medium with 10% fetal calve serum and 10 μg/mL of the DNA-binding fluorescent dye H33342 (Engelmann et al., 2001). […] Subsequently, 100 μL well PBS is added and the fluorescence is quantified at an […]. The intensity of the fluorescence signal is a measure for the number of viable cells. […] The fluorescence intensity of these samples is set as 100%. […] The ED50-values were calculated using the nonlinear regression. […]

[3] = system: primary human gingival fibroblasts; assay: Cytotoxicity of 5-FU in primary human gingival fibroblasts with or without PTD-4-TSD254E fusion protein (Hoechst 33342); assay type: cell-based; conditions: 10 mM 5-FU, 24 h, without PTD-4-TSD254E, FIG. 7
Method: After completion of the 24-hour treatment of the cells in the control- or test assaysas described above, the medium is removed from the 96-well-plates and substituted by 200 μL/well DMEM medium with 10% fetal calve serum and 10 μg/mL of the DNA-binding fluorescent dye H33342 (Engelmann et al., 2001). The plates are kept at 37° C. for 30 minutes and are then washed twice with each 100 μL/well phosphaste-buffered sodium chloride solution (PBS, “phosphate buffered saline”). Subsequently, 100 μL well PBS is added and the fluorescence is quantified at an […]. The intensity of the fluorescence signal is a measure for the number of viable cells. The fluorescence background signal (dye incubation without cells) is subtracted from the raw data of the fluorescence readings and the calculation of the %-share of viable cells is made related to the fluorescence reading of cells, which were not treated with 5-FU. The fluorescence intensity of these samples is set as 100%. The dosage of 5-FU that kills 50% of the cells (ED50), is determined using the same method. […] The ED50-values were calculated using the nonlinear regression. This method to determine the ED50 has been already described (Engelmann et al., 2001). […]

Row | Compound | transduction activity in comparison to the original TAT sequence [1] [fold] | survival of cells ([2]; 2.5 μM 5-FU, absence of PTD-4-TSD254E, FIG. 6) [%] | pEC50 ([2]; 3T3-fibroblast cell line, read-out: ED50 (dosage of 5-FU that kills 50% of the cells)) | survival of cells [3] [%]
1 | PTD-4: optimized TAT sequence YARAAARQARA (SEQ ID NO: 6), protein transduction domain 4 (synthetic TAT sequence optimized by random mutagenisis) | 33 | – | – | –
2 | O=c1[nH]cc(F)c(=O)[nH]1 [Mutant 5-FU, 5-fluorouracil] | – | 50 | 5.60 | 70

Source: patent US20080045451A1, “Novel thymidylate synthase mutants” (priority 2000, published 2008)
